Ends that are not written are not given here. Peptide text beside a SMILES is read from it.
Columns and labels:
[1] = tested on: C. albicans strains WO-1 and Sc 5314; assay: Microdilution antifungal assay, summary for C. albicans; assay type: cell-based, Candida albicans; settings: for Anticandidal activity against the yeast form of growing C. albicans: strains WO-1 and Sc 5314, LSM medium, microdilution plate assay
Experimental: (§1) The antifungal activity of the NCR peptides against C. albicans strains and other Candida species was determined in vitro using 96-well flat bottom microtiter plates (Sarstedt). Fifty microliters of dilutions from each peptide (final concentrations in the assays ranged from 2.5 to 100 μg/mL) was added to 50 μL of 10^4 cells mL^−1 and 10^5 cells mL^−1 in LSM. The plates were incubated at 30°C and the peptide concentrations that prevented the germination of yeast cells were determined by microscopic analysis and measurement of absorbance at 600 nm with a microtiter plate reader (FLUOstar OPTIMA; BMG Labtech) after 24 and 48 hours. Minimal inhibitory concentration (MIC) was determined as the lowest concentration of the peptide at which there was no visible and measurable growth after 24 hours of incubation. To determine whether the antifungal effect was fungistatic or fungicidal, 10 μL from each treatment was dropped onto solid YPD plate after 3 and 24 hours. Plates were incubated at 30°C for 48 hours and developing colonies were observed. Minimal fungicidal concentration (MFC) was defined where no fungal growth could be observed.

C. albicans WO-1 = assay type: cell-based, Candida albicans; settings: for Minimal fungicidal concentration, 3 h: WO-1, 3 h; for Minimal fungicidal concentration, 24 h: WO-1, 24 h
Experimental: as §1

| Compound | Anticandidal activity against the yeast form of growing C. albicans [1] | Minimal fungicidal concentration, 3 h (C. albicans WO-1) | Minimal fungicidal concentration, 24 h (C. albicans WO-1) | MIC ([1]; Candida albicans, SC5314, comparator value given in text, strain, method and source not given, read-out: MIC of amphotericin B) | MIC of amphotericin B ([1]; comparator value given in text, strain, method and source not given) |
| --- | --- | --- | --- | --- | --- |
| CC[C@H](C)[C@H](NC(=O)[C@H](Cc1ccc(O)cc1)NC(=O)[C@H](CC(N)=O)NC(=O)[C@H](CCCNC(=N)N)NC(=O)[C@@H](NC(=O)[C@H](CCC(N)=O)NC(=O)[C@H](CCCNC(=N)N)NC(=O)[C@H](CS)NC(=O)[C@H](CC(=O)O)NC(=O)[C@H](CCCCN)NC(=O)[C@H](CC(N)=O)NC(=O)[C@@H](NC(=O)[C@@H](NC(=O)[C@H](CS)NC(=O)[C@H](CC(N)=O)NC(=O)[C@H](CCCNC(=N)N)NC(=O)[C@H](CO)NC(=O)[C@@H](NC(=O)[C@@H]1CCCN1C(=O)[C@H](CC(C)C)NC(=O)[C@H](Cc1ccccc1)NC(=O)[C@H](C)N)[C@@H](C)O)[C@@H](C)CC)[C@@H](C)O)C(C)C)C(=O)N[C@@H](C)C(=O)N[C@@H](CCCNC(=N)N)C(=O)N[C@@H](CS)C(=O)N[C@@H](CCCNC(=N)N)C(=O)N[C@@H](CCCCN)C(=O)NCC(=O)N[C@@H](CCC(N)=O)C(=O)N[C@@H](CS)C(=O)N[C@@H](CC(C)C)C(=O)N[C@@H](CCC(N)=O)C(=O)N[C@@H](CO)C(=O)N1CCC[C@H]1C(=O)N[C@H](C(=O)N[C@@H](CCCNC(=N)N)C(=O)O)C(C)C [NCR030] (H-AFLPTSRNCITNKDCRQVRNYIARCRKGQCLQSPVR-OH; N-terminus and C-terminus assumed) | exhibited anticandidal activity | 12.5 (±2) μg/mL | 16.5 (±5) μg/mL |  |  |
| CC[C@H](C)[C@H](NC(=O)[C@H](CCCNC(=N)N)NC(=O)[C@H](CCCNC(=N)N)NC(=O)[C@H](CCCNC(=N)N)NC(=O)[C@@H](NC(=O)[C@H](CS)NC(=O)[C@H](Cc1ccc(O)cc1)NC(=O)CNC(=O)[C@H](CCCCN)NC(=O)[C@H](CCCNC(=N)N)NC(=O)[C@H](CS)NC(=O)[C@H](CCCNC(=N)N)NC(=O)[C@H](C)NC(=O)[C@H](CCCNC(=N)N)NC(=O)[C@H](Cc1ccc(O)cc1)NC(=O)[C@H](CC(N)=O)NC(=O)[C@H](CCCCN)NC(=O)[C@@H](NC(=O)[C@@H](NC(=O)[C@H](CO)NC(=O)[C@H](CS)NC(=O)[C@H](CCC(=O)O)NC(=O)[C@H](CCCCN)NC(=O)[C@H](CC(=O)O)NC(=O)[C@H](CO)NC(=O)[C@@H](NC(=O)[C@H](CS)NC(=O)[C@@H]1CCCN1C(=O)[C@H](CCCCN)NC(=O)[C@H](CO)NC(=O)[C@H](CC(C)C)NC(=O)[C@H](CCC(N)=O)NC(=O)[C@@H](NC(=O)[C@H](Cc1ccccc1)NC(=O)[C@H](C)N)[C@@H](C)CC)[C@@H](C)CC)[C@@H](C)CC)C(C)C)C(C)C)C(=O)N[C@@H](CCCNC(=N)N)C(=O)O [NCR044] (H-AFIQLSKPCISDKECSIVKNYRARCRKGYCVRRRIR-OH; N-terminus and C-terminus assumed) | exhibited anticandidal activity | 11 (±2) μg/mL | 6.25 (±1) μg/mL |  |  |
| CC[C@H](C)[C@H](NC(=O)[C@H](CC(N)=O)NC(=O)[C@H](Cc1c[nH]cn1)NC(=O)[C@@H]1CCCN1C(=O)[C@@H]1CCCN1C(=O)[C@H](CCSC)NC(=O)[C@H](CCCNC(=N)N)NC(=O)[C@@H]1CCCN1C(=O)[C@H](CS)NC(=O)[C@H](CC(=O)O)NC(=O)[C@H](CCCCN)NC(=O)[C@H](CC(=O)O)NC(=O)[C@@H](NC(=O)[C@H](CC(C)C)NC(=O)[C@H](CS)NC(=O)[C@@H]1CCCN1C(=O)[C@H](CCCNC(=N)N)NC(=O)[C@H](CC(C)C)NC(=O)[C@@H](NC(=O)[C@@H](N)CCSC)[C@@H](C)O)[C@@H](C)O)C(=O)N[C@@H](CCCCN)C(=O)N[C@@H](CS)C(=O)N[C@@H](CCCNC(=N)N)C(=O)N[C@@H](CCCCN)C(=O)NCC(=O)N[C@@H](Cc1c[nH]cn1)C(=O)N[C@@H](CS)C(=O)N[C@H](C(=O)N1CCC[C@H]1C(=O)N[C@H](C(=O)NCC(=O)N[C@@H](CCCCN)C(=O)N1CCC[C@H]1C(=O)N[C@@H](Cc1ccccc1)C(=O)N[C@@H](CCCCN)C(=O)O)[C@@H](C)CC)C(C)C [NCR137] (H-MTLRPCLTDKDCPRMPPHNIKCRKGHCVPIGKPFK-OH; N-terminus and C-terminus assumed) | exhibited anticandidal activity | 20 (±2.5) μg/mL | 25 (±3) μg/mL |  |  |
| CC[C@H](C)[C@H](N)C(=O)N[C@@H](Cc1ccc(O)cc1)C(=O)N[C@@H](Cc1ccccc1)C(=O)N1CCC[C@H]1C(=O)N[C@H](C(=O)N[C@@H](CO)C(=O)N[C@@H](CCCNC(=N)N)C(=O)N1CCC[C@H]1C(=O)N[C@@H](CS)C(=O)N[C@H](C(=O)N[C@H](C(=O)N[C@@H](CC(=O)O)C(=O)N[C@@H](CCCCN)C(=O)N[C@@H](CC(=O)O)C(=O)N[C@@H](CS)C(=O)N1CCC[C@H]1C(=O)N[C@@H](CC(N)=O)C(=O)N[C@@H](CCSC)C(=O)N[C@@H](CCCCN)C(=O)N[C@@H](Cc1c[nH]cn1)C(=O)N[C@@H](Cc1ccc(O)cc1)C(=O)N[C@@H](CCCCN)C(=O)N[C@@H](C)C(=O)N[C@@H](CCCCN)C(=O)N[C@@H](CS)C(=O)N[C@@H](CCCNC(=N)N)C(=O)N[C@@H](CCCCN)C(=O)NCC(=O)N[C@@H](Cc1ccccc1)C(=O)N[C@@H](CS)C(=O)N[C@H](C(=O)N[C@@H](CO)C(=O)N[C@@H](CO)C(=O)N[C@@H](CCCNC(=N)N)C(=O)N[C@H](C(=O)N[C@@H](CCCNC(=N)N)C(=O)O)C(C)C)[C@@H](C)CC)[C@@H](C)O)[C@@H](C)CC)C(C)C [NCR147] (H-IYFPVSRPCITDKDCPNMKHYKAKCRKGFCISSRVR-OH; N-terminus and C-terminus assumed) | exhibited anticandidal activity | 8 (±6.5) μg/mL | 9 (±4) μg/mL |  |  |
| CSCC[C@H](NC(=O)[C@H](Cc1ccccc1)NC(=O)[C@H](CCCCN)NC(=O)[C@@H]1CCCN1C(=O)[C@H](CS)NC(=O)[C@H](CCCNC(=N)N)NC(=O)CNC(=O)[C@H](CC(=O)O)NC(=O)[C@H](CCCNC(=N)N)NC(=O)CNC(=O)[C@H](CS)NC(=O)[C@H](CC(C)C)NC(=O)[C@@H](NC(=O)[C@H](CCCNC(=N)N)NC(=O)[C@@H](N)CCSC)C(C)C)C(=O)N[C@@H](CS)C(=O)N[C@@H](CCCNC(=N)N)C(=O)N[C@H](C(=O)N[C@@H](Cc1ccccc1)C(=O)N[C@@H](CC(C)C)C(=O)O)[C@@H](C)O [NCR280] (H-MRVLCGRDGRCPKFMCRTFL-OH) |  | 10 (±2) μg/mL | 8 (±3) μg/mL |  |  |
| C[C@@H]1[C@H](O)[C@@H](C)/C=C/C=C/C=C/C=C/C=C/C=C/C=C/[C@H](O[C@@H]2O[C@H](C)[C@@H](O)[C@H](N)[C@@H]2O)C[C@@H]2O[C@](O)(C[C@@H](O)C[C@@H](O)[C@H](O)CC[C@@H](O)C[C@@H](O)CC(=O)O[C@H]1C)C[C@H](O)[C@H]2C(=O)O [amphotericin B, reference compound] |  |  |  | 1.69 µM | ~ 1.7 μM |
| ITISNSSFGRIVYWNCKTDKDCKQHRGFNFRCRSGNCIPIRR (cysteines drawn unpaired) [NCR183] | exhibited anticandidal activity | 16.5 (±12) μg/mL | 15.5 (±13) μg/mL |  |  |

Reference: PMC4163382, “Symbiotic Plant Peptides Eliminate Candida albicans Both In Vitro and in an Epithelial Infection Model and Inhibit the Proliferation of Immortalized Human Cells” (BioMed Research International, 2014)
